We go through 2 compounds from ChEMBL document CHEMBL3244184, “Synthesis of 5-azacytidine-6-13C and -6-14C” (J Med Chem, 1977).

Data set [1] can be described thus: Drug excretion in New Zealand white rabbit bile assessed as NSC-102816 equivalent excretion at 15 mg/kg, iv after 8 hrs by liquid scintillation counting. Set-up: dose 15 mg/kg, route intravenous. It counts as ADME, organism-based, Oryctolagus cuniculus. Particulars: in vivo.
Data set [2] in a line: Drug excretion in New Zealand white rabbit urine assessed as NSC-102816 equivalent excretion at 15 mg/kg, iv after 8 hrs by liquid scintillation counting. More on the design: dose 15 mg/kg, route intravenous. It counts as ADME, organism-based, Oryctolagus cuniculus. Particulars: in vivo.

For the compound `N[14c]1ncn([C@@H]2O[C@H](CO)[C@@H](O)[C@H]2O)c(=O)n1`, the Drug excretion in data set [1] worked out at 1 %ID; in data set [2], 35.3 %ID.
The corresponding values for `Nc1n[14cH]n([C@@H]2O[C@H](CO)[C@@H](O)[C@H]2O)c(=O)n1` are 0.88 %ID and 2.53 %ID.
